# According to PubChem BioAssay (NCI):
#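 Compound exposure: 48 hours, 5 concentrations, 96-well plates. GI50 marks 50% less growth. TGI: total growth inhibition.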
# Experiments:
# Experiment in all cases: NCI-60 cell line screen, 48 h
# 786-0 renal = system: 786-0 renal
# A498 renal = system: A498 renal
# A549 NSCLC = system: A549 NSCLC
# ACHN renal = system: ACHN renal
# BT-549 breast = system: BT-549 breast
# CAKI-1 renal = system: CAKI-1 renal
# CCRF-CEM leukemia = system: CCRF-CEM leukemia
# COLO 205 colon = system: COLO 205 colon
# DU-145 prostate = system: DU-145 prostate
# HCC-2998 colon = system: HCC-2998 colon
# HCT-116 colon = system: HCT-116 colon
# HCT-15 colon = system: HCT-15 colon
# HL-60(TB) leukemia = system: HL-60(TB) leukemia
# HOP-62 NSCLC = system: HOP-62 NSCLC
# HOP-92 NSCLC = system: HOP-92 NSCLC
# HS 578T breast = system: HS 578T breast
# HT29 colon = system: HT29 colon
# IGROV1 ovarian = system: IGROV1 ovarian
# K-562 leukemia = system: K-562 leukemia
# KM12 colon = system: KM12 colon
# LOX IMVI melanoma = system: LOX IMVI melanoma
# M14 melanoma = system: M14 melanoma
# MALME-3M melanoma = system: MALME-3M melanoma
# MCF7 breast = system: MCF7 breast
# MDA-MB-231 breast = system: MDA-MB-231 breast
# MDA-MB-435 = system: MDA-MB-435
# MOLT-4 leukemia = system: MOLT-4 leukemia
# NCI-H226 lung = system: NCI-H226 lung
# NCI-H23 lung = system: NCI-H23 lung
# NCI-H460 lung = system: NCI-H460 lung
# NCI-H522 lung = system: NCI-H522 lung
# NCI/ADR-RES ovarian = system: NCI/ADR-RES ovarian
# OVCAR-3 ovarian = system: OVCAR-3 ovarian
# OVCAR-4 ovarian = system: OVCAR-4 ovarian
# OVCAR-5 ovarian = system: OVCAR-5 ovarian
# OVCAR-8 ovarian = system: OVCAR-8 ovarian
# PC-3 prostate = system: PC-3 prostate
# RPMI-8226 leukemia = system: RPMI-8226 leukemia
# RXF 393 renal = system: RXF 393 renal
# SF-268 CNS = system: SF-268 CNS
# SF-295 CNS = system: SF-295 CNS
# SF-539 CNS = system: SF-539 CNS
# SK-MEL-2 melanoma = system: SK-MEL-2 melanoma
# SK-MEL-28 melanoma = system: SK-MEL-28 melanoma
# SK-MEL-5 melanoma = system: SK-MEL-5 melanoma
# SK-OV-3 ovarian = system: SK-OV-3 ovarian
# SN12C renal = system: SN12C renal
# SNB-19 CNS = system: SNB-19 CNS
# SNB-75 CNS = system: SNB-75 CNS
# SR leukemia = system: SR leukemia
# SW-620 colon = system: SW-620 colon
# T-47D breast = system: T-47D breast
# TK-10 renal = system: TK-10 renal
# U251 CNS = system: U251 CNS
# UACC-257 melanoma = system: UACC-257 melanoma
# UACC-62 melanoma = system: UACC-62 melanoma
# UO-31 renal = system: UO-31 renal
smiles,measurement,setting,value
CC1(C)N=C(N)N=C(N)N1c1ccc(CNC(=O)Nc2ccc(S(=O)(=O)F)c(Cl)c2)c(Cl)c1,GI50,786-0 renal,872 nM
same,TGI,786-0 renal,> 100 µM
same,GI50,A498 renal,9.5 µM
same,TGI,A498 renal,> 100 µM
same,GI50,A549 NSCLC,560 nM
same,TGI,A549 NSCLC,> 100 µM
same,GI50,ACHN renal,5.28 µM
same,TGI,ACHN renal,> 100 µM
same,GI50,BT-549 breast,8.51 µM
same,TGI,BT-549 breast,> 100 µM
same,GI50,CAKI-1 renal,12.5 µM
same,TGI,CAKI-1 renal,> 100 µM
same,GI50,CCRF-CEM leukemia,477 nM
same,TGI,CCRF-CEM leukemia,> 100 µM
same,GI50,COLO 205 colon,867 nM
same,TGI,COLO 205 colon,> 100 µM
same,GI50,DU-145 prostate,760 nM
same,TGI,DU-145 prostate,> 100 µM
same,GI50,HCC-2998 colon,1110 nM
same,TGI,HCC-2998 colon,> 100 µM
same,GI50,HCT-116 colon,379 nM
same,TGI,HCT-116 colon,> 100 µM
same,GI50,HCT-15 colon,4.87 µM
same,TGI,HCT-15 colon,> 100 µM
same,GI50,HL-60(TB) leukemia,377 nM
same,TGI,HL-60(TB) leukemia,> 100 µM
same,GI50,HOP-62 NSCLC,9.81 µM
same,TGI,HOP-62 NSCLC,> 100 µM
same,GI50,HOP-92 NSCLC,19.9 µM
same,TGI,HOP-92 NSCLC,97.5 µM
same,GI50,HS 578T breast,21.8 µM
same,TGI,HS 578T breast,> 100 µM
same,GI50,HT29 colon,195 nM
same,TGI,HT29 colon,> 67.3 µM
same,GI50,IGROV1 ovarian,80.5 nM
same,TGI,IGROV1 ovarian,> 100 µM
same,GI50,K-562 leukemia,257 nM
same,TGI,K-562 leukemia,> 100 µM
same,GI50,KM12 colon,589 nM
same,TGI,KM12 colon,> 100 µM
same,GI50,LOX IMVI melanoma,396 nM
same,TGI,LOX IMVI melanoma,> 100 µM
same,GI50,M14 melanoma,1240 nM
same,TGI,M14 melanoma,> 100 µM
same,GI50,MALME-3M melanoma,17.3 µM
same,TGI,MALME-3M melanoma,> 100 µM
same,GI50,MCF7 breast,536 nM
same,TGI,MCF7 breast,> 100 µM
same,GI50,MDA-MB-231 breast,15.6 µM
same,TGI,MDA-MB-231 breast,> 100 µM
same,GI50,MDA-MB-435,183 nM
same,TGI,MDA-MB-435,> 100 µM
same,GI50,MOLT-4 leukemia,954 nM
same,TGI,MOLT-4 leukemia,> 100 µM
same,GI50,NCI-H226 lung,13.7 µM
same,TGI,NCI-H226 lung,> 100 µM
same,GI50,NCI-H23 lung,585 nM
same,TGI,NCI-H23 lung,> 100 µM
same,GI50,NCI-H460 lung,45.6 nM
same,TGI,NCI-H460 lung,> 100 µM
same,GI50,NCI-H522 lung,624 nM
same,TGI,NCI-H522 lung,40.2 µM
same,GI50,NCI/ADR-RES ovarian,> 90.8 µM
same,TGI,NCI/ADR-RES ovarian,> 100 µM
same,GI50,OVCAR-3 ovarian,6.34 µM
same,TGI,OVCAR-3 ovarian,> 100 µM
same,GI50,OVCAR-4 ovarian,4.57 µM
same,TGI,OVCAR-4 ovarian,> 100 µM
same,GI50,OVCAR-5 ovarian,332 nM
same,TGI,OVCAR-5 ovarian,> 100 µM
same,GI50,OVCAR-8 ovarian,2080 nM
same,TGI,OVCAR-8 ovarian,> 100 µM
same,GI50,PC-3 prostate,67.7 nM
same,TGI,PC-3 prostate,> 100 µM
same,GI50,RPMI-8226 leukemia,1430 nM
same,TGI,RPMI-8226 leukemia,> 100 µM
same,GI50,RXF 393 renal,525 nM
same,TGI,RXF 393 renal,> 100 µM
same,GI50,SF-268 CNS,686 nM
same,TGI,SF-268 CNS,> 100 µM
same,GI50,SF-295 CNS,5.41 µM
same,TGI,SF-295 CNS,> 100 µM
same,GI50,SF-539 CNS,1110 nM
same,TGI,SF-539 CNS,25 µM
same,GI50,SK-MEL-2 melanoma,12.2 µM
same,TGI,SK-MEL-2 melanoma,> 74.9 µM
same,GI50,SK-MEL-28 melanoma,4.35 µM
same,TGI,SK-MEL-28 melanoma,> 100 µM
same,GI50,SK-MEL-5 melanoma,880 nM
same,TGI,SK-MEL-5 melanoma,> 74.7 µM
same,GI50,SK-OV-3 ovarian,> 45 µM
same,TGI,SK-OV-3 ovarian,> 100 µM
same,GI50,SN12C renal,867 nM
same,TGI,SN12C renal,> 100 µM
same,GI50,SNB-19 CNS,3.64 µM
same,TGI,SNB-19 CNS,> 100 µM
same,GI50,SNB-75 CNS,3.47 µM
same,TGI,SNB-75 CNS,> 100 µM
same,GI50,SR leukemia,167 nM
same,TGI,SR leukemia,> 100 µM
same,GI50,SW-620 colon,122 nM
same,TGI,SW-620 colon,> 100 µM
same,GI50,T-47D breast,11.6 µM
same,TGI,T-47D breast,> 100 µM
same,GI50,TK-10 renal,8.39 µM
same,TGI,TK-10 renal,> 100 µM
same,GI50,U251 CNS,510 nM
same,TGI,U251 CNS,> 100 µM
same,GI50,UACC-257 melanoma,5.11 µM
same,TGI,UACC-257 melanoma,> 100 µM
same,GI50,UACC-62 melanoma,303 nM
same,TGI,UACC-62 melanoma,> 100 µM
same,GI50,UO-31 renal,53.7 µM
same,TGI,UO-31 renal,> 100 µM
